2 molecules from paper PMC7221592, “Synthesis and Molecular Modelling Studies of New 1,3-Diaryl-5-Oxo-Proline Derivatives as Endothelin Receptor Ligands” (Molecules, 2020) can be followed below.

Square brackets hold non-standard residues; d marks the D form. Peptide text beside a SMILES is read from it.

For this assay, the target named is T1, ETA receptor (ETAR) (Homo sapiens, UniProt P25101).
T1 construct: gene EDNRA
T1 sequence (P25101 21-427): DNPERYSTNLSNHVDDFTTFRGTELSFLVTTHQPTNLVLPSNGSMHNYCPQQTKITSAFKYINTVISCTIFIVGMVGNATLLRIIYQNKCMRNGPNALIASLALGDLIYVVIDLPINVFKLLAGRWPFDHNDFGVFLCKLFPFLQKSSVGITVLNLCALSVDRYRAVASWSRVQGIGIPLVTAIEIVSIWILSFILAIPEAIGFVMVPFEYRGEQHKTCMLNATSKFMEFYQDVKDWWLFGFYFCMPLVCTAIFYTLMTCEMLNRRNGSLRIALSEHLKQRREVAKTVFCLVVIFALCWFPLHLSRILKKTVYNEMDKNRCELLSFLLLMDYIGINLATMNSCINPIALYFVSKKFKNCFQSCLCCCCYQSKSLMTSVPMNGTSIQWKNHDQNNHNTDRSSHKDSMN
The experiment in a line: […]ET-1 radioligand displacement, recombinant human ETA in CHO-K1 cells. It counts as cell-based. The note with it: read-out: ETAh 10^-5 M ^a. In general terms: Displacement assays read how much labelled ligand stays bound in the presence of the test substance.

Take `COc1ccc(CN2C(=O)C[C@H](c3ccc4c(c3)OCO4)[C@H]2C(=O)O)cc1` (racemic) [31h, (±)-trans 3-(1,3-Benzodioxol-5-yl)-1-[(4-methoxyphenyl)methyl]-5-oxo-proline]: the Ki worked out at 3300 ± 1100 nM.

Regarding `CC(C)C[C@@H]1NC(=O)[C@@H](C(C)C)NC(=O)[C@@H]2CCCN2C(=O)[C@@H](CC(=O)O)NC(=O)[C@@H](Cc2c[nH]c3ccccc23)NC1=O` [BQ-123] (cyclo(L[dW][dD]P[dV])), the Ki was 5.4 ± 0.8 nM.
